{
  "source": "patent US7078403B1",
  "about": "“Antiviral agents” (Biota Scientific Management Pty Ltd., priority 1999, dated 2006)",
  "key": {"in vitro [1]": {"assay": "in vitro", "conditions": "mammalian cell culture (cell line not stated)"}, "Rhinovirus Type 14": {"system": "Rhinovirus Type 14", "format": "cell-based, human rhinovirus", "conditions": "for EC50: Enterovirus"}, "[2]": {"system": "human embryo lung (MRC-5) cells"}, "Enterovirus 70": {"system": "Enterovirus 70", "assay": "Activity on Enterovirus 70 in mammalian cell culture assay", "format": "cell-based", "conditions": "Enterovirus D"}, "Coxsackie A21": {"system": "Coxsackie A21", "assay": "Activity on Coxsackie A21 in mammalian cell culture assay", "format": "cell-based"}, "HRV type 1A": {"system": "HRV type 1A", "assay": "Inhibition of viral cytopathic effect (CPE), visual scoring or neutral red, HRV type 1A in MRC-5 cells", "format": "cell-based, human rhinovirus", "conditions": "for EC50: Enterovirus, MRC5, HRV type 1A in MRC-5 cells, CPE inhibition, read-out: Activity on Rhinovirus Type 1A EC50; for Activity on Rhinovirus Type 1A SI: selectivity index = CC50 or MTC divided by EC50, HRV type 1A, MRC-5 cells"}, "HRV-2": {"system": "HRV-2", "assay": "Time of addition study, CPE inhibition of HRV-2 in KB cells", "format": "cell-based, human rhinovirus", "conditions": "Rhinovirus A, read-out: EC50 (visual assay)"}, "in vitro [3]": {"assay": "in vitro", "conditions": "human"}, "HRV type 2": {"system": "HRV type 2", "assay": "Inhibition of viral cytopathic effect (CPE), visual scoring or neutral red, HRV type 2 in KB cells", "format": "cell-based, human rhinovirus"}, "in vitro [4]": {"assay": "in vitro", "conditions": "mammalian cell culture (cell line not stated)", "remark": "listed apart in the source"}, "[5]": {"system": "human embryo lung (MRC-5) cells", "assay": "Cytotoxicity (CC50 or MTC) in uninfected MRC-5 cells", "conditions": "unit not given"}, "in vitro [6]": {"assay": "in vitro", "conditions": "mammalian cell culture (cell line not stated)", "remark": "listed apart in the source"}},
  "note": "Where two headings read alike, the source gives them in different places.",
  "data": [
    {"smiles": "CCO/N=C/c1ccc(OCCCCCN(C)c2ccc(Cl)nn2)cc1", "note": "[Compound 161]", "values": [
      {"measurement": "CC50", "setting": "in vitro [1]", "result": "> 0.5", "unit": "µg/mL"},
      {"measurement": "EC50", "setting": "Rhinovirus Type 14; HRV14, HRV-14, read-out: Activity on Rhinovirus Type 14 EC50", "result": 0.0348, "unit": "µg/mL"}
    ]},
    {"smiles": "CCON=Cc1ccc(OCCC2CCN(c3cccc(C)n3)CC2)cc1", "note": "[Compound 196]", "values": [
      {"measurement": "Activity on Rhinovirus Type 14 EC50", "setting": "Rhinovirus Type 14; HRV-14", "result": 0.0424, "unit": "µg/mL"}
    ]},
    {"smiles": "CO/N=C/c1ccc(OCCC2CCN(c3cncc(Cl)n3)CC2)cc1", "note": "[Compound 199]", "values": [
      {"measurement": "Activity on Rhinovirus Type 14 EC50", "setting": "Rhinovirus Type 14; HRV-14", "result": 0.0402, "unit": "µg/mL"}
    ]},
    {"smiles": "CO/N=C/c1ccc(OCCC2CCN(c3nc4ccccc4o3)CC2)cc1", "note": "[Compound 200]", "values": [
      {"measurement": "Activity on Rhinovirus Type 14 EC50", "setting": "Rhinovirus Type 14; HRV-14", "result": 0.021, "unit": "µg/mL"}
    ]},
    {"smiles": "CCO/N=C/c1ccc(OCCC2CCN(c3nc4ccccc4o3)CC2)cc1", "note": "[Compound 201]", "values": [
      {"measurement": "Activity on Rhinovirus Type 14 EC50", "setting": "Rhinovirus Type 14; HRV-14", "result": 0.0261, "unit": "µg/mL"}
    ]},
    {"smiles": "CO/N=C/c1ccc(OCCC2CCN(c3nc(OC)nc(OC)n3)CC2)cc1", "note": "[Compound 202]", "values": [
      {"measurement": "Activity on Rhinovirus Type 14 EC50", "setting": "Rhinovirus Type 14; HRV-14", "result": 0.0593, "unit": "µg/mL"}
    ]},
    {"smiles": "CCO/N=C/c1ccc(OCCC2CCN(c3nc(OC)nc(OC)n3)CC2)cc1", "note": "[Compound 203]", "values": [
      {"measurement": "Activity on Rhinovirus Type 14 EC50", "setting": "Rhinovirus Type 14; HRV-14", "result": 0.060, "unit": "µg/mL"}
    ]},
    {"smiles": "CCc1cnc(N2CCC(CCOc3ccc(/C=N/OC)cc3)CC2)nc1", "note": "[Compound 204]", "values": [
      {"measurement": "Activity on Rhinovirus Type 14 EC50", "setting": "Rhinovirus Type 14; HRV-14", "result": 0.0554, "unit": "µg/mL"}
    ]},
    {"smiles": "CCO/N=C/c1ccc(OCCC2CCN(c3ncc(CC)cn3)CC2)cc1", "note": "[Compound 205]", "values": [
      {"measurement": "Activity on Rhinovirus Type 14 EC50", "setting": "Rhinovirus Type 14; HRV-14", "result": 0.0638, "unit": "µg/mL"}
    ]},
    {"smiles": "CO/N=C/c1ccc(OCCC2CCN(c3nc4ccccc4s3)CC2)cc1", "note": "[Compound 206]", "values": [
      {"measurement": "Activity on Rhinovirus Type 14 EC50", "setting": "Rhinovirus Type 14; HRV-14", "result": 0.0233, "unit": "µg/mL"}
    ]},
    {"smiles": "CCO/N=C/c1ccc(OCCCCCOc2ccc(Cl)nn2)cc1", "note": "[Compound 209]", "values": [
      {"measurement": "Activity on Rhinovirus Type 14 EC50", "setting": "Rhinovirus Type 14; HRV-14", "result": 0.0157, "unit": "µg/mL"}
    ]},
    {"smiles": "CCO/N=C/c1ccc(OCCC2CCN(c3cc(C)c(Cl)nn3)CC2)cc1", "note": "[Compound 212]", "values": [
      {"measurement": "Activity on Rhinovirus Type 14 EC50", "setting": "Rhinovirus Type 14; HRV-14", "result": 0.0107, "unit": "µg/mL"}
    ]},
    {"smiles": "CC(C)S(=O)(=O)n1c(N)nc2ccc(/C(=N/O)c3ccccc3)cc21", "note": "[Enviroxime]", "values": [
      {"measurement": "Activity on Rhinovirus Type 1A MTC", "setting": "[2]", "result": 0.49},
      {"measurement": "EC50", "setting": "Enterovirus 70", "result": 0.21, "unit": "µg/mL"},
      {"measurement": "EC50", "setting": "Coxsackie A21", "result": 0.39, "unit": "µg/mL"},
      {"measurement": "EC50", "setting": "HRV type 1A", "result": 0.006, "unit": "µg/mL"},
      {"measurement": "Activity on Rhinovirus Type 1A SI", "setting": "HRV type 1A", "result": 75.91}
    ]},
    {"smiles": "CCOC(=O)c1ccc(OCCC2CCN(c3ccc(C)nn3)CC2)cc1", "note": "[Pirodavir, ethyl 4-[2-[1-(6-methyl-3-pyridazinyl)-4-piperidinyl]-ethoxy]benzoate]", "values": [
      {"measurement": "EC50", "setting": "HRV-2; HRV2, time of addition 0 hr", "result": 0.004, "unit": "µg/mL"},
      {"measurement": "EC50", "setting": "HRV-2; HRV2, time of addition 1 hr post-virus", "result": 0.1, "unit": "µg/mL"},
      {"measurement": "EC50", "setting": "HRV-2; HRV2, time of addition 2 hr post-virus", "result": "> 0.1", "unit": "µg/mL"},
      {"measurement": "EC50", "setting": "HRV-2; HRV2, time of addition 4 hr post-virus", "result": "> 0.1", "unit": "µg/mL"},
      {"measurement": "EC50", "setting": "HRV-2; HRV2, time of addition 6 hr post-virus", "result": "> 0.1", "unit": "µg/mL"},
      {"measurement": "EC50", "setting": "HRV-2; HRV2, time of addition 8 hr post-virus", "result": "> 0.1", "unit": "µg/mL"},
      {"measurement": "EC50", "setting": "HRV-2; HRV2, time of addition 24 hr post-virus", "result": "> 0.1", "unit": "µg/mL"},
      {"measurement": "EC50", "setting": "HRV-2; HRV2, time of addition −1 hr (pre-treatment)", "result": 0.023, "unit": "µg/mL"},
      {"measurement": "Activity on Rhinovirus Type 1A MTC", "setting": "[2]", "result": ">10.00"},
      {"measurement": "CC50", "setting": "in vitro [3]", "result": "> 1", "unit": "µg/mL"},
      {"measurement": "EC50", "setting": "HRV type 1A", "result": 0.02, "unit": "µg/mL"},
      {"measurement": "Activity on Rhinovirus Type 1A SI", "setting": "HRV type 1A", "result": 555.74},
      {"measurement": "EC50", "setting": "HRV type 2; Enterovirus, HRV type 2 in KB cells, CPE inhibition, read-out: Activity on Rhinovirus Type 2 EC50", "result": 0.003, "unit": "µg/mL"},
      {"measurement": "Activity on Rhinovirus Type 2 SI", "setting": "HRV type 2; selectivity index = CC50 or MTC divided by EC50, HRV type 2, KB cells", "result": ">300"}
    ]},
    {"smiles": "Cc1cc(CCCOc2c(C)cc(-c3noc(C(F)(F)F)n3)cc2C)on1", "note": "[Pleconaril, reference compound]", "values": [
      {"measurement": "CC50", "setting": "in vitro [1]", "result": "> 0.1", "unit": "µg/mL"},
      {"measurement": "EC50", "setting": "Rhinovirus Type 14; HRV14, read-out: Activity on Rhinovirus Type 14 EC50", "result": 0.0608, "unit": "µg/mL"}
    ]},
    {"smiles": "NC(=O)c1ncn([C@@H]2O[C@H](CO)[C@@H](O)[C@H]2O)n1", "note": "[Ribavirin]", "values": [
      {"measurement": "CC50", "setting": "in vitro [4]", "result": "> 100", "unit": "µg/mL"},
      {"measurement": "Activity on Rhinovirus Type 1A MTC", "setting": "[5]", "result": 98.3},
      {"measurement": "EC50", "setting": "Enterovirus 70", "result": "> 100", "unit": "µg/mL"},
      {"measurement": "CC50", "setting": "in vitro [6]", "result": "> 100", "unit": "µg/mL"},
      {"measurement": "EC50", "setting": "Coxsackie A21", "result": "> 100", "unit": "µg/mL"},
      {"measurement": "EC50", "setting": "HRV type 1A", "result": 1.93, "unit": "µg/mL"},
      {"measurement": "Activity on Rhinovirus Type 1A SI", "setting": "HRV type 1A", "result": 51.03}
    ]}
  ]
}
